Measurements from patent US4386103A, “Dichloroamino acid derivatives useful as potent germicidal and fungicidal agents” (Merck & Co., Inc., priority 1981, dated 1983).

Key:
[1] = system: Pseudamonas aeruginosa; assay: Contact germicidal screen, Pseudamonas aeruginosa ATCC No. 14502; assay type: cell-based
Description: The organisms used in the contact germicidal screen are all maintained as stock cultures on nutrient agar […] 4° C. They are transferred and biochemically diagnosed monthly. The five organisms used are: The media used are: […] Overnight cultures of the test organisms are grown in tryptose phosphate broth. After 15-16 hours, the cultures are centrifuged at […] for 15 minutes, and the supernatant replaced with fresh warm (37° C.) media. After two hours of incubation, the absorbance of the culture at 650 nm is determined and diluted with nutrient broth to 1×10^7 colony forming units per ml (using a previous determined standard curve: colony forming units/ml vs. absorbance at 650). The diluted cultures are maintained at 4°-8° C. throughout the screen. The compounds are weighed into sterile 100 ml volumetric flasks, and immediately before screening dissolved in one of the following buffers: 0.1 M NaOAc pH 4.6 or 0.1 M NaH2 PO4 pH 7.0. If solubility poses a problem, 10-30% methanol is used to effect solution. Two denaturing agents are also tested: […] Horse Serum restored with 100 ml distilled water and 10% Trition×100. When used, 2.5 ml of the denaturing agent is mixed with 2.5 ml of double strength test solution thirty minutes before the bacterial suspension is added. The screen is initiated when 0.2 ml of the bacterial suspension is added to 5.0 ml of the test solution contained in a sterile 25 ml glass stoppered flask. At intervals of 0.5, 2.5, 5.0, 10.0 and 15.0 minutes, a loopful of the inoculated test solution is subcultured into 5 ml of sterile nutrient broth and mixed with a vortex, the high dilution serving to stop the action of the compound. All of the subculture tubes are incubated at 37° C. and checked for signs of growth by turbidity at 1, 3, 5 and 7 days. The earliest subculture time at which no growth is present is considered the endpoint and is recorded as the sterilization time. An aliquot of 0.2 ml of the diluted culture is transferred to 5 ml of buffer to simulate 0.2 ml in 5 ml of test solution. (a) Purity: A loopful of the inoculated buffer is streaked onto nutrient agar to check colony morphology and lack of contaminants. (b) Viability: A loopful of the inoculated buffer is subcultured to 5 ml of nutrient broth as in the screen and incubated at 37° C. for 24 hours. (c) Dilution of the Test Solution: A loopful of the test solution is transferred to a 5 ml tube of nutrient broth, and a loopful of the inoculated buffer is transferred to the same tube of broth. […] (d) Purity of Organisms in the Test Solution: After the 15 minute subculture, a loopful of the inoculated test solution is streaked onto nutrient agar to insure that contamination has not occurred during the screen. (e) lack of Bactericidal Activity of Buffers and Other Solvents: Before a buffer or other solvent is used as a diluent, it is screened against the five organisms to insure that the buffer or solvent has no antibacterial activity itself.

[2] = system: Rhizopus oryzae; assay: Contact fungicidal screen, Rhizopus oryzae; assay type: cell-based; details: 0.1M NaOAc pH 4.6
Description: The organisms used in the Contact Fungicidal Screen are a dermatophyte, trychophyton mentagrophytes, frequently associated with athlete's foot; a yeast, Candida albican, causative agent of thrush and vaginitis; a phycomycete, Rhizopus oryzae, commonly known as black bread mold; an ascomycete, Aspergillus fumagatis, found in chicken droppings and causing lung infections; and another dermatophyte, Microsporum canis, which causes ringworm. These organisms are maintained as stock cultures at 4° C. on agar slants of the following composition: dextrose 2%, Neopeptone (Difco) 1%, agar 2%. Fluid medium of the same nutrient composition (without agar) was used to test the viability of the organisms after exposure to the fungicide. This medium is also known as Sabouraud's medium.
[…]. The mycelial mat is removed from the surface of the agar using a sterile spatula. It is transferred to a heat sterilized glass tissue grinder and macerated with 25 ml of sterile physiological saline. The suspension is then filtered through sterile glass wool. The density of the sporangia spore suspension is determined by counting in a hemacytometer. The suspension is stored at 4° C. until it was used, at which time it was diluted with sterile physiological saline to a density of 5×10^6 spores per ml.
The compounds are weighed into heat sterilized 100 ml volumetric flasks and immediately before screening dissolved in 0.1 M NaOAc pH 4.6 buffer (test solutions).
The Aspergillus, Candida, Microsporum and Rhizopus species are screened in a slightly different manner. Basically, the procedure for the Contact Germicidal Efficiency Screen is utilized. After the test solutions are made up, 5 ml aliquots are pipetted into heat sterilized 25 ml glass stoppered erlenmeyer flasks. The screen is initiated when 0.5 ml of the 5×10^6 cell (spore) per ml suspension is added to the flask containing 5 ml of the test solution. At intervals of 0.5, 2.5, 5.0, 10.0 and 15.0 minutes, a 4 mm loopful of the inoculated test solution is subcultured into 7 mL of sterile fluid Sabouraud's medium and mixed on a vortex, the high dilution serving to stop the action of the compound. The subculture tubes are incubated at 25°-30° C. for ten days with daily observation for mycelial growth. The earliest subculture time at which no growth is present is considered the endpoint and is recorded as the sterilization time.
To insure the viability of the culture, a 0.5 ml aliquot of the 5×10^6 cells (spores) per ml suspension is transferred to 5 ml of the pH 4.6 buffer. A loopful of the inoculated buffer is then subcultured to 7 ml of fluid Sabouraud's medium and incubated at 25°-30° C. for ten days. To insure that the dilution of the test solution into the subculture medium does stop the action, a loopful of the test solution and a loopful of the inoculated buffer are transferred into the same subculture tube. This tube is also incubated at 25°-30° C. for ten days.

[3] = Stability in Triacetin (preliminary formulation studies); assay type: physicochemical; details: 60° C., two months
Source text: Triacetin is the triacetate of glycerin; it is a viscous liquid with high water solubility and very low toxicity. […] Of course other aprotic polar solvents can be used as well.

## CC(C)(COC(=O)CCC(=O)O)N(Cl)Cl [(IV), 2-Dichloroamino-2-methylpropylhemisuccinate]
[1]; 8.6 PPM, 0.1M NaOAc pH 4.6
  Sterilization Time: 10.0 min
[1]; 9.8 PPM, 0.1M NaH2PO4 pH 7.0
  Sterilization Time: 15 min
[1]; 10.0+ PPM, 0.1M NaOAc pH 4.6, screened simultaneously with four other compounds
  Sterilization Time: 5.0 min
[1]; 10 PPM, 0.1M NaOAc pH 4.6
  Sterilization Time (summary): 5.0 min
[1]; 100 PPM, 0.1M NaOAc pH 4.6
  Sterilization Time (summary): 2.5 min
[1]; 106.2 PPM, 0.1M NaOAc pH 4.6
  Sterilization Time: 2.5 min
[1]; 149.7 PPM, 0.1M NaH2PO4 pH 7.0
  Sterilization Time: 15 min
[1]; 300 PPM with 50% Horse Serum, 0.1M NaOAc pH 4.6
  Sterilization Time (summary): 15 min
[1]; 300 PPM with 50% Triton X100, 0.1M NaOAc pH 4.6
  Sterilization Time (summary): 2.5 min
[1]; 308.0 PPM, Triton X100 (10% solution):pH 4.6 buffer 1:1
  Sterilization Time: 2.5 min
[1]; 338.7 PPM, horse serum:pH 4.6 buffer 1:1
  Sterilization Time: 15 min
[1]; 1000 PPM with 50% Horse Serum, 0.1M NaOAc pH 4.6
  Sterilization Time (summary): 10.0 min
[1]; 1000 PPM, 0.1M NaOAc pH 4.6
  Sterilization Time (summary): 0.5 min
[1]; 1008.0 PPM, 0.1M NaOAc pH 4.6
  Sterilization Time: 0.5 min
[1]; 1024.0 PPM, horse serum:pH 4.6 buffer 1:1
  Sterilization Time: 10.0 min
[1]; 1070.3 PPM, 0.1M NaH2PO4 pH 7.0
  Sterilization Time: 15 min
[2]; 10 PPM
  Sterilization Time: 15 min
[2]; 100 PPM
  Sterilization Time: 15 min
[2]; 1000 PPM
  Sterilization Time: 15 min
[3]
  decomposition in esters of polyalcohols such as Triacetin: no decomposition
